Here are results for 4 compounds from US7557109B2, “Treatment for attention-deficit hyperactivity disorder” (priority 2001, dated 2009).

The subject of one assay is Cm mutant mice. The following applies: Hess et al., 1996; cited from earlier work.
Assay [1] concerns coloboma (Cm) mutant mice. The class given is in vivo. An excerpt: (§1) Heterozygote coloboma mice were originally purchased from The Jackson Laboratory (Bar Harbor, Me.) and were bred and maintained in our colony. In the current study, 20 mutant mice and 25 wild-type littermates, all aged 8 to 10 weeks, were used. Animals were divided into 4 groups: mutant/drug-treatment (n=11), mutant/vehicle-control (n=9), wild-type/drug-treatment (n=13), wild-type/vehicle-control (n=12). Age and gender were balanced among groups. All animals were housed as littermates (2-4 mice per cage) and were maintained on ad libitum food and water with a 12 hr light/dark cycle.
(§2) Open-field testing was performed under normal lighting conditions. Mice were brought into the experimental room and allowed at least 1 hr of acclimatization. Thirty minutes prior to testing, animals received an ip. injection of either d-amphetamine (4 mg/kg), eltoprazine (0.5 mg/kg) or saline. The mice were then placed in the activity monitor arenas (27×27×20 cm, Med Associates). Four animals of matching genotype and treatment were tested at one time. Each testing session lasted 40 minutes, after which animals were returned to their home cages. An automated infrared beam array system measured locomotor activity (total distance traveled) and number of center entries (zone crossings).

Assay [2] has as its system wild-type mice. Description: DRL-36s schedule after FR5 conditioning, wild-type mice. The class given is in vivo. Here is the method:
(§3) Experiments were conducted in eight identical mouse operant chambers (16×14×13 cm) with stainless steel grid floors (ENV-307M; Med Associates Inc., Georgia, Vt., USA) housed in sound-insulating and ventilated cubicles. Each chamber was equipped with two ultra-sensitive retractable levers, one on each side of a food cup containing photocells to register nose poke behavior and in which a pellet dispenser delivered 20 mg food pellets (Formula A/I, P.J. Noyes Company Inc., Lancaster, N.H., USA). A red house light (50 lux) was located in the center of the wall opposite to the food cup and levers. Stimulus lights were located above each lever and above the food cup. Experimental sessions were controlled and data were recorded by a computer.
(§4) Mice trained on DRL procedure first received operant conditioning. DRL-36s task was adapted from procedures used in rats (O'Donnell and Seiden, supra). Briefly, mice first learned to respond for food under a DRL 6 sec schedule, which means that mice had to wait at least 6 seconds between successive lever presses in order to obtain a food reward. Subsequently the schedule requirement was increased every session in steps of 6 sec to 36 sec (DRL 36 sec). Each session started with the illumination of the house light, the stimulus light above the food cup and the presentation of the left lever for the duration of the session. […] If the mouse presses too soon, no reinforcement is given, the clock is reset to zero, and a new 36-sec waiting period starts. In this way, the DRL-36s schedule task primarily measures waiting strategies which reflect hyperactivity-impulsivity behaviors associated with ADHD. Animals were trained until performances on the DRL 36 sec schedule had stabilized (approximately 25 sessions). All training sessions lasted 60 min and were conducted 5 days per week from Monday-Friday. The total number of lever presses (responses), the total number of reinforcements, and the inter-response times (IRT) are recorded.
Data were analyzed as described elsewhere (Richards et al., J. Exp. Anal. Behav. 60:361-385, 1993; Sabol et al., Psychopharmacology 121:57-65, 1995). The inter-response time (IRT) analysis included three measures for the characterization of DRL 36 sec IRT distributions: peak area, peak location and burst ratio. Only peak area (PkA) and peak location (PkL) are presented. The PkA measure is the area of the obtained IRT distribution of a mouse above the corresponding negative exponential, a computation based on mean of obtained IRT durations excluding the burst component of IRT<3 sec (see Richards et al., supra, for details). […] Thus, decreases in PkA indicate that the mouse's IRT distribution becomes more similar to random performance indicating loss of schedule control. PkL is calculated as the median of the area of the obtained IRT distribution above the corresponding negative exponential.
Mice were conditioned and challenged on a DRL-36s schedule according to the methods of Example 7, with the following modifications. Because 1BKO mice had difficulty learning the DRL-36s schedule following conditioning on an FR1, wild-type and 1BKO mice were conditioned on a fixed rate 5 (FR5) schedule. In FR5, instead of pressing the lever once for a reward, animals have to press 5 times. The rationale for changing the operant conditioning was that by increasing the number of responses necessary for reinforcement, the wild-type mice should have greater difficulty and the 1BKO (which have higher response rates anyway) should have less difficulty getting reinforcements.

Assay [3] concerns 5-HT1B knockout (1BKO) mice. Put plainly: DRL-36s schedule after FR5 conditioning, 5-HT1B knockout mice. The class given is in vivo. Here is the method:
as §3, §4
Data were analyzed as described elsewhere (Richards et al., J. Exp. Anal. Behav. 60:361-385, 1993; Sabol et al., Psychopharmacology 121:57-65, 1995). The inter-response time (IRT) analysis included three measures for the characterization of DRL 36 sec IRT distributions: peak area, peak location and burst ratio. Only peak area (PkA) and peak location (PkL) are presented. The PkA measure is the area of the obtained IRT distribution of a mouse above the corresponding negative exponential, a computation based on mean of obtained IRT durations excluding the burst component of IRT<3 sec (see Richards et al., supra, for details). […] PkL is calculated as the median of the area of the obtained IRT distribution above the corresponding negative exponential. […]

In assay [4] the test system is wild-type mice. Description: Open-field locomotor activity, wild-type littermates. The assay is classed as in vivo.
Text: as §1, §2

Another assay has as its system C57BL/6J mice. Put plainly: Peak procedure (30 second reinforcement interval), C57BL/6J mice. The class given is in vivo. Here is the method: (§5) The peak procedure is a behavioral model designed to assess an animal's ability to learn an appropriate time period in which to perform a task and a time period in which the animal will be rewarded if the task is performed. The model provides information concerning excitatory and inhibitory components of behavior, as subjects must respond to perform a task when appropriate and stop responding in an “empty trial” when time for reward has elapsed and the reward has not been delivered. The task is sensitive to conditions where there is a failure in inhibitory mechanisms, such as seems to be the case for ADHD (Pliszka et al., Biol. Psychiatry, 48:238-46, 2000).
In the peak procedure, mice are trained to work for food that is delivered at the same time in each trial, but withdrawn in some unreinforced trials. Typically, the response rate increases up to a maximum around the reinforcement time, and then decreases to a low toward the end of the trial. […] Accuracy is measured by looking at the shape of the response function; therefore, if the response function is sharper and centered on the reinforcement time it supports a conclusion that attentional processes have been heightened.
(§6) Mice were food deprived to 85-90% of their free-feeding body weight by supplementing food earned during experimental sessions with a measured amount after the session had ended. […]

The test system of the next assay is C3H mice. Description: Peak procedure (30 second reinforcement interval), C3H mice. The assay is classed as in vivo. As to conditions: 0.3 to 3.0 mg/kg i.p. (FIG. 8). As for the experimental part:
as §5
In the peak procedure, mice are trained to work for food that is delivered at the same time in each trial, but withdrawn in some unreinforced trials. Typically, the response rate increases up to a maximum around the reinforcement time, and then decreases to a low toward the end of the trial. The shape of the response rate indicates whether the animal is sensitive to the time of reinforcement. To be able to perform well in this model, the animals need to be able to learn several tasks. First, the animal must make an association between a response (lever pressing, nose poking or key pecking) and the delivery of reward. Second, the animal must be able to perceive and remember time. Third, the animal must act on its remembered time by starting and then stopping or inhibiting the response. Fourth, the animal must be able to compare the elapsed time in the trials with its remembered time to reinforcement. […] Accuracy is measured by looking at the shape of the response function; therefore, if the response function is sharper and centered on the reinforcement time it supports a conclusion that attentional processes have been heightened.
as §6

Assay [5] relates to DA and 5-HT release in dorsal striatum. Put plainly: In vivo microdialysis of DA and 5-HT release in dorsal striatum, 1BKO mice. The following applies: local administration. Details: species or system 5-HT1B knock out mice. From the text:
(§7) Wild-type and 5-HT1B knock out mice were implanted with microdialysis probes according to the methods of DeGroote et al., incorporated herein by reference, with the following modifications. (DeGroote et al., Eur. J. Pharmacol., 439:93-100, 2002). The dialysis probe was placed in the dorsal striatum, at coordinates AP +0.80, ML −1.7 mm from bregma, DV −4.0 mm from the dura, according to the stereotaxic atlas of the mouse brain (Franklin and Paxinos, 1997), and with the toothbar set at 0 mm. Microdialysis experiments were begun 16-20 hours after surgery, using previously described methods, which are incorporated herein by reference (DeGroote et al., 2002). After the start of the dialysis probe perfusion, mice were left undisturbed for three hours. Mice were tested in their home cage during the light period. Samples were collected every 20 minutes in vials containing 7.5 μl acetic acid and stored at −80° C. until HPLC analysis.
Release of DA and 5-HT was measured after peripheral administration of eltoprazine or intrastriatal administration of the selective 5-HT1B receptor agonist CP 93129 dihydrochloride (1,4-Dihydro-3-(1,2,3,6-tetrahydro-4-pyridinyl)-5H-pyrrolo[3,2-b]pyridin-5-one, obtained from Tocris, UK.) Drugs were dissolved in distilled water and further diluted in Ringer solution to the final concentration on the day of the experiment. 5-HT and DA were analyzed by HPLC with electrochemical detection. Samples (25 μl) were injected onto an Inertsil ODS-3 column (3 μM, 2.1×100 mm, Aurora Borealis, The Netherlands) using a Gilson pump and autosampler (Separations, The Netherlands). […] The signal was analyzed using Gynkotek software. […]
Values for the first four consecutive microdialysis samples were averaged to calculate the basal levels of extracellular 5-HT and DA, uncorrected for probe recovery. […] Effects of drug treatment were analyzed by a repeated multivariate analysis of variance (ANOVA) with time as ‘within’ and treatment (or dose) and genotype as ‘between’ factors.

For assay [6] the test system is unchanged. Put plainly: In vivo microdialysis of DA and 5-HT release in dorsal striatum, wild-type mice.
Text: as §7
Release of DA and 5-HT was measured after peripheral administration of eltoprazine or intrastriatal administration of the selective 5-HT1B receptor agonist CP 93129 dihydrochloride (1,4-Dihydro-3-(1,2,3,6-tetrahydro-4-pyridinyl)-5H-pyrrolo[3,2-b]pyridin-5-one, obtained from Tocris, UK.) Drugs were dissolved in distilled water and further diluted in Ringer solution to the final concentration on the day of the experiment. 5-HT and DA were analyzed by HPLC with electrochemical detection. Samples (25 μl) were injected onto an Inertsil ODS-3 column (3 μM, 2.1×100 mm, Aurora Borealis, The Netherlands) using a Gilson pump and autosampler (Separations, The Netherlands). Separation was performed at 40° C. with the electrochemical detector (Intro, ANTEC Leyden, The Netherlands) set at a potential of 600 mV against an Ag/AgCl reference electrode. The signal was analyzed using Gynkotek software. The mobile phase consisted of 5 g/l (NH4)2SO4, 150 mg/l heptane sulphonic acid sodium salt, 0.5 g/l EDTA, 5% methanol, 30 μl/l triethylamine, 30 μl/l acetic acid, pH 4.6. Flow rate was 0.3 ml/min. The detection limit for 5-HT was 0.5 fmol/25 μl sample (signal to noise ratio 2).
Values for the first four consecutive microdialysis samples were averaged to calculate the basal levels of extracellular 5-HT and DA, uncorrected for probe recovery. Student's t-tests were used to compare basal 5-HT and DA values between the two genotypes. Effects of drug treatment were analyzed by a repeated multivariate analysis of variance (ANOVA) with time as ‘within’ and treatment (or dose) and genotype as ‘between’ factors.

Structures are written as SMILES. Bounds are passed on as bounds.

Take `C[C@H](N)Cc1ccccc1` [d-amphetamine]: the “hyperactivity / locomotor activity in Cm mutant mice” value in the assay with Cm mutant mice is recorded as “normalizes the hyperactivity”. The total distance traveled in assay [1] (4 mg/kg i.p., 40 min session, saline 18386±6387 (FIG. 4)) was 5966±1938 cm; in the assay with wild-type mice [4] (4 mg/kg i.p., 40 min session, saline 3116±338 (FIG. 4)) it was 11657±2370 cm. The response rate entry is recorded as “significantly increased response rate” in the assay on wild-type mice [2] (2 mg/kg i.p.); “significantly decreased response rate in wild-types compared to 1BKO mice” with wild-type mice [2] (4 mg/kg i.p., wild-type vs 1BKO); “decreased response rate” in the assay with wild-type mice [2] (8 mg/kg i.p.); “not statistically significant at any dose” in assay [3] (2, 4 or 8 mg/kg i.p. (FIG. 12B)). Also, the number of reinforcements result in the assay with wild-type mice [2] (2 and 8 mg/kg i.p. vs vehicle (FIG. 12A)) is reported as “significantly decreased the number of reinforcements”; in assay [3] (2, 4 or 8 mg/kg i.p. (FIG. 12A)) it was “no significant effect on number of reinforcements”. Also, the “relative response rate curve in peak trials” value was “does not peak as high as the lower dose and the curve is flatter” in the assay on C57BL/6J mice (4 mg/kg, 30 min before session (FIG. 1C)); “higher peak in the curve followed by a rapid decrease” with C57BL/6J mice (1 and 2 mg/kg, 30 min before session, relative to saline (FIGS. 1A, 1B)).
Turning to `CCCOc1ccc2[nH]cc(C3=CCNCC3)c2n1` [CP 94253, reference compound], the distance traveled result in assay [1] (0.5 mg/kg (FIG. 7)) was “did not decrease significantly the distance traveled”. The locomotor activity entry with wild-type mice [4] (0.5 mg/kg (FIG. 7)) is reported as “no effect on the locomotor activity”. For the same compound, in the assay on C3H mice, the “timing in the peak procedure” value is given as “no effect on timing in the peak procedure”.
`COC(=O)C(c1ccccc1)C1CCCCN1` (stereo not shown) [methylphenidate]: in the assay with Cm mutant mice, the “hyperactivity / locomotor activity in Cm mutant mice” value is on record as “increases locomotor activity in a dose-dependent manner”.
Regarding `O=c1ccc2[nH]cc(C3=CCNCC3)c2[nH]1` [CP 93129, 1,4-Dihydro-3-(1,2,3,6-tetrahydro-4-pyridinyl)-5H-pyrrolo[3,2-b]pyridin-5-one, reference compound], in [5] (0.5 μM), the 5-HT release entry was “did not decrease 5-HT release” and the “striatal release of DA” value is listed as “similarly unaffected”. In assay [5] (50 μM, compared to vehicle), the “increase in DA levels” value is given as 527±67%. For the same compound, in assay [6] (0.5 μM, local administration), the DA release entry is on record as “unaffected” and the “time for 5-HT release to return toward basal levels after cessation” value is at most 40 min. The “5-HT level as compared to vehicle” value in assay [6] (0.5 μM, local administration through probe) is on record as 51±9%. Besides, the “increase in DA levels” value in assay [6] (50 μM, local administration, compared to vehicle) was 525±79%.
